In patent US6028068A, “Substituted 6H-1,3,4-thiadiazine-2-amines, the use thereof as anaesthetising, cardiovascular and hypometabolic agents, and a pharmaceutical composition containing them” (The Procter & Gamble Company, priority 1999, dated 2000):
Counter-ions that a name gives are not always drawn.

How the values were obtained:
[1] = Rectal (body) temperature in mice; assay type: in vivo, mice (BALB line); conditions: for Body temperature (T): Table 2, 390 mg/kg (1.0 mM/kg; 1/2 LD16)
Procedure: (§1) In all cases trials were carried out on mice of the BALB line of 3-4 month age. […] In the case of water-soluble compounds aqueous solutions of the test compounds were injected intraperitoneally (i.p.), while water-insoluble compounds were introduced orally (p.o.).
(§2) Rectal temperature changes (absolute magnitudes in ° C.) were measured using a medicinal electrothermometer TREM-1 (Table 1). […] The data on oxygen consumption are given an percents relative to the starting content of oxygen taken as 100 (Table 2).

[2] = Oxygen consumption in mice (closed testing unit, gas analyzer MN 5130); assay type: in vivo, mice (BALB line); conditions: for Lowering of oxygen consumption: relative to initial value; for Consumption of oxygen (O2): relative to starting content taken as 100, 390 mg/kg (1.0 mM/kg; 1/2 LD16), mice
Procedure: as §1, §2

[3] = Rectal temperature in rats; assay type: in vivo
[4] = Observed behavioural effects in mice after introduction; assay type: in vivo, mice (BALB line); conditions: intraperitoneally
Procedure: In all cases trials were carried out on mice of the BALB line of 3-4 month age. Non-toxic doses of compounds under test, varying from 60 to 400 mg/kg, were used in all experiments. In the case of water-soluble compounds aqueous solutions of the test compounds were injected intraperitoneally (i.p.), while water-insoluble compounds were introduced orally (p.o.).
(§3) Compound 1 was dissolved in a twin-water 1:9 (concentration of saturated solution was 40 mg/ml) and introduced intraperitoneally at the rate of 0.2 ml per 20 g of mouse weight.

[5] = Lethal dose determination (LD16, LD50, LD84) in mice; conditions: mouse, in vivo, ip
physchem = assay type: physicochemical; conditions: twin-water 1:9
Procedure: as §3

CCOC(=O)C(=NOC)C1=NN=C(N2CCOCC2)SC1 [Compound 1, Ethyl-1-methoxyimino-1-(2-morpholino-6H-1,3,4-thiadiazine-5-yl)acetate, hydrobromide]
Time to maximum temperature drop [1]: 90 to 120 min
Body temperature ([1]; 391.7 mg/kg (1.0 mM/kg) i.p., 0 minutes): 37.9 °C
Body temperature ([1]; 391.7 mg/kg (1.0 mM/kg) i.p., 30 minutes): 29.6 °C
Body temperature ([1]; 391.7 mg/kg (1.0 mM/kg) i.p., 60 minutes): 26.5 °C
Body temperature ([1]; 391.7 mg/kg (1.0 mM/kg) i.p., 90 minutes): 24.8 °C
Body temperature ([1]; 391.7 mg/kg (1.0 mM/kg) i.p., 120 minutes): 24.6 °C
Body temperature ([1]; 391.7 mg/kg (1.0 mM/kg) i.p., 180 minutes): 32.6 °C
Body temperature ([1]; 391.7 mg/kg (1.0 mM/kg) i.p., 240 minutes): 34.6 °C
Body temperature ([1]; 391.7 mg/kg (1.0 mM/kg) i.p., 300 minutes): 35.9 °C
Fall of rectal temperature ([1]; 10 minutes after introduction): 3-4 °C
Body temperature (T) ([1]; 5 minutes): 33.5 °C
Body temperature (T) ([1]; 15 minutes): 31.2 °C
Fall of rectal temperature ([1]; after 30 minutes): 7-8 °C
Temperature difference ([1]; after five hours): 2 °C
Drop of body temperature ([1]; introduced intraperitoneally): drop of body temperature
Maximum temperature drop ([1]; reached in 90-120 minutes): 12-13 °C
Restoration of oxygen consumption ([2]; Table 2, mice): Full restoration of oxygen consumption was not observed
Lowering of oxygen consumption ([2]; at the fourth hour): 2 fold
Lowering of oxygen consumption ([2]; during the first hour): 7-10 fold
Lowering of oxygen consumption ([2]; for the next 2 hours): 3-4 fold
Consumption of oxygen (O2) ([2]; 0 minutes): 100 percents
Consumption of oxygen (O2) ([2]; 5 minutes): 8.1 percents
Consumption of oxygen (O2) ([2]; 15 minutes): 0.1 percents
Consumption of oxygen (O2) ([2]; 30 minutes): 0.2 percents
Consumption of oxygen (O2) ([2]; 60 minutes): 12.0 percents
Consumption of oxygen (O2) ([2]; 90 minutes): 27.0 percents
Consumption of oxygen (O2) ([2]; 120 minutes): 26.0 percents
Consumption of oxygen (O2) ([2]; 180 minutes): 28.0 percents
Consumption of oxygen (O2) ([2]; 240 minutes): 59.0 percents
Fall of rectal temperature ([3]; 10 minutes after introduction): 3-4 °C
Fall of rectal temperature ([3]; after 30 minutes): about 5 °C
Effects of introduction [4]: akiriesia, suppression of reflexes to external disturbance, lateral state of mice
LD16 [5]: 788.4 mg/kg
LD50 [5]: 830 mg/kg
LD84 [5]: 881.5 mg/kg
solubility (physchem): 40 mg/mL

CCOC(=O)C(=NOC)C1=NN=C(N2CCSCC2)SC1 [Compound 4, Ethyl-1-methoxyimino-1-(2-thiomorpholino-6H-1,3,4-thiadiazine-5-yl)acetate, mesylate]
Body temperature ([1]; 166.0 mg/kg (0.39 mM/kg) i.p., 0 minutes): 38.1 °C
Body temperature ([1]; 166.0 mg/kg (0.39 mM/kg) i.p., 30 minutes): 33.9 °C
Body temperature ([1]; 166.0 mg/kg (0.39 mM/kg) i.p., 60 minutes): 34.9 °C
Body temperature ([1]; 166.0 mg/kg (0.39 mM/kg) i.p., 120 minutes): 35.7 °C
Body temperature ([1]; 166.0 mg/kg (0.39 mM/kg) i.p., 180 minutes): 37.4 °C

CCOC(=O)C(=NOC)C1=NN=C(N2CCOCC2)SC1 [Compound 2, Ethyl-1-methoxyimino-1-(2-morpholino-6H-1,3,4-thiadiazine-5-yl)acetate, mesylate]
Body temperature ([1]; 410.0 mg/kg (1.0 mM/kg) i.p., 0 minutes): 38.5 °C
Body temperature ([1]; 410.0 mg/kg (1.0 mM/kg) i.p., 30 minutes): 31.9 °C
Body temperature ([1]; 410.0 mg/kg (1.0 mM/kg) i.p., 60 minutes): 32.8 °C
Body temperature ([1]; 410.0 mg/kg (1.0 mM/kg) i.p., 90 minutes): 35.3 °C
Body temperature ([1]; 410.0 mg/kg (1.0 mM/kg) i.p., 120 minutes): 36.4 °C
Body temperature ([1]; 410.0 mg/kg (1.0 mM/kg) i.p., 180 minutes): 37.6 °C
Body temperature ([1]; 410.0 mg/kg (1.0 mM/kg) i.p., 240 minutes): 38.8 °C
